Experimental data published in patent US20140148336A1, “METHODS OF CONTROLLING FUNGAL PATHOGENS USING POLYENE FUNGICIDES” (priority 2012, published 2014).
Where two headings read alike, the source gives them in different places.

How the values were obtained:
F. virguliforme [1] = format: in vivo, Fusarium virguliforme; details: 50 mL per cone, 2% low rate infested soil, 18-21 days
Experimental: Sorghum was prepared for inoculation. One to two liters of sorghum seed was put into spawn bags, autoclaved, then inoculated with 30-45 mL of an SDA spore suspension. Bags were left in a cupboard at room temperature, then shaken and mixed every few days for three weeks until ready. Sorghum inoculum was assessed for the number of spores per gram of seed by hemacytometer. The sorghum grew to 4.57×10^5 spores/g.
F. virguliforme spores were enumerated before soil inoculation. First, 25 mL of sterile 0.1% Tween 80 in water was added to sterile 50 mL conical tubes. The tubes where weighed. Then several grains of colonized sorghum from the spawn bag were aseptically added. The tubes were re-weighed to find the exact mass of colonized spores added to the tube. The tubes were shaken at 28-30° C. at approximately 250 rpm for 2-4 hours to release spores from the sorghum seed. Samples were then removed from the tubes and spores were quantified using a hemacytometer. F. virguliforme spores were quantified by making a dilution series from each tube onto PDA plates with 100 ppm chloramphenicol antibiotic.
Soil inoculation began by grounding sorghum grain inoculum in a Waring blender in small batches for 10-20 seconds on the low setting. The ground sorghum was then mixed into Monterey sand fine #60 (Lapis Luster, RMC pacific materials) at either a “2% low rate,” consisting of 2×10^5 spores/cone with 8.9 g/L of sand, or a “5% high rate,” consisting of 5×10^5 spores/cone with 22.5 g/L of sand. The Monterey sand was not pre-sterilized. The ground sorghum inoculum was added on the same day as the experimental set up. In later experiments, ground sorghum inoculum was mixed into sand based on the enumerated spores per gram of inoculum.
Natamycin solution was added in four different concentrations to four different groups of untreated seeds in “2% low rate” infested soil cones. The four different concentrations were 250 ppm, 100 ppm, 50 ppm, and 25 ppm. Fifty milliliters of the natamycin solutions were used per cone.
The assays were planted by first moistening infested sand with water at 150 mL per liter of sand and mixing. The cone-shaped containers were filled 1-2 inches at the bottom with a Sunshine #3 potting mix plug in order to keep the sand in the tube. The containers were then filled to within 1-1.5 inches of the top with moistened and infested sand, taking an average of 120-125 mL to fill each container. The containers were then watered. Two soy seeds were planted into each container. […]
The plants were allowed to grow for 18-21 days. The plants were then gently removed and assessed for root rot symptoms, with a rating of 1=0% infection on taproot and lateral roots, a 2=<25% infection, a 3=25-50% infection, a 4=51-90% infection, and a 5=>90% infection. […]

F. virguliforme [2] = test: Agar diffusion assay, zones of inhibition on F. virguliforme lawn plates (Example 1); format: cell-based, Fusarium virguliforme
Experimental: A PDA plate containing two week old F. virguliforme was flooded with sterile distilled water and scraped with an L-rod to release spores. The spore solution was poured through about four layers of cheese cloth into a 50 mL conical tube. Spores were quantified using a hemacytometer, then diluted to 1×10^5 spores/mL. (1×10^4 spores were spread on plates.) To make F. virguliforme lawn plates, 100 μL of the spore suspension was spread onto commercial PDA plates. Wells were made for the F. virguliforme lawn plates using straw-plungers.
Natamycin stock was diluted in sterile distilled water to concentrations of 500 ppm, 250 ppm, 100 ppm, 50 ppm, 25 ppm, 12.5 ppm, 6.25 ppm, 3.13 ppm, 1.56 ppm, 0.78 ppm, and 0.4 ppm. 100 μL of each dilution was placed in a well on the lawn plates. Control plates consisted of a 1000 ppm plate, a water control, and a 70% ethanol (EtOH) control.
[…] […] Dilutions lower than 12.5 ppm had no effect.

SDS spores [3] = test: Comparison of inoculum rates on treated seeds for control of SDS in planta (Example 6); format: in vivo, Fusarium virguliforme; details: for Root Vigor Average: rating 0-4 (4 = healthy taproot); for Root Rot Average: rating 1-5 (5 = >90% infection)
Text: (§1) The plants were allowed to grow for 18-21 days. The plants were then gently removed and assessed for root rot symptoms, with a rating of 1=0% infection on taproot and lateral roots, a 2=<25% infection, a 3=25-50% infection, a 4=51-90% infection, and a 5=>90% infection. Root vigor was rated such that a rating of 4=healthy taproot and many lateral roots, a 3=fewer lateral roots and some stunting, a 2=fewer or stringy lateral roots and more stunting, 1=thin tap root and only a few lateral roots, and a 0=thin and stunted taproot with 0-3 lateral roots.
Using a protocol similar to that described in Example 5, natamycin at concentrations of 50 μg, 25 μg, 10 μg, 5 μg, and 1 μg was assessed for the treatment of SDS.
[…] Inoculum rates of 25 g/L inoculum and 8 g/L inoculum were compared, corresponding to approximately 10^5 SDS spores per container and 10^4-10^5 SDS spores per container, respectively. Assessment occurred after 18 and 22 days.

SDS spores [4] = test: Drench treatment on soy seedlings for control of SDS in planta (Example 3); format: in vivo, Fusarium virguliforme; details: 50 mL per container, 1×10^7 spores/container, eighteen days
Text: as §1, with “roots. […] Two experiments were performed. The natamycin solutions were used as a drench treatment with 50 mL of the solution applied to each container. Soy seedlings were transplanted into SDS infested soil, with SDS spores at a rate of 1×10^7 spores/container. The natamycin solutions were applied to the containers the day after transplant. Soy roots were washed after eighteen days.” for “roots.”

For `C[C@@H]1C/C=C/C=C/C=C/C=C/[C@H](O[C@@H]2O[C@H](C)[C@@H](O)[C@H](N)[C@@H]2O)C[C@@H]2O[C@](O)(C[C@@H](O)C[C@H]3O[C@@H]3/C=C/C(=O)O1)C[C@H](O)[C@H]2C(=O)O` [Natamycin, natamycin], the “root rot ratings as compared to the infected control” value (F. virguliforme [1]; 25 ppm/container) was “significantly lowering”, the “root vigor as compared to the infected control” value (F. virguliforme [1]; 25 ppm/container) was “improving” and the “root rot ratings as compared to the infected control” value (F. virguliforme [1]; 50 ppm/container) was “significantly lowering”. The “root vigor as compared to the infected control” value (F. virguliforme [1]; 50 ppm/container) was “improving”, the “control of F. virguliforme (zones of inhibition), drop off” value (F. virguliforme [2]; 12.5 ppm, 100 μL per well, after three days) was “noticeably” and the “control of F. virguliforme (zones of inhibition)” value (F. virguliforme [2]; 12.5 ppm, after seven days) was “very limited activity”. For the same compound, the “Fusarium growth around plates” value (F. virguliforme [2]; 25 ppm and 12.5 ppm plates, one day later (after the three-day reading)) was “more Fusarium grew”, the “control of F. virguliforme (zones of inhibition)” value (F. virguliforme [2]; 50 ppm, 100 μL per well, after three days) was “started to drop off slightly” and the “control of F. virguliforme (zones of inhibition)” value (F. virguliforme [2]; 50 ppm, after seven days) was “started falling off”. The “control of F. virguliforme (zones of inhibition)” value (F. virguliforme [2]; 100 ppm, 100 μL per well, after three days) was “Substantial control”, the “control of F. virguliforme (zones of inhibition)” value (F. virguliforme [2]; 250 ppm, 100 μL per well, after three days) was “Substantial control” and the “control of F. virguliforme (zones of inhibition)” value (F. virguliforme [2]; 500 ppm, 100 μL per well, after three days) was “Substantial control”. For the same compound, the “control of F. virguliforme (zones of inhibition)” value (F. virguliforme [2]; 1000 ppm plate, after three days) was “almost completely controlled”, the “effect on F. virguliforme (zones of inhibition)” value (F. virguliforme [2]; dilutions lower than 12.5 ppm) was “no effect” and the “decrease of root rot symptoms” value (SDS spores [3]; both seed treatment experiments, both SDS inoculum rates) was “no consistent decrease”. The “Root Vigor Average” value (SDS spores [3]; drench 25 ppm, Inoc Rate 8, IC 2.3) was 1.9, the “Root Rot Average” value (SDS spores [3]; drench 25 ppm, Inoc Rate 8, IC 2.9) was 2.6 and the “Root Vigor Average” value (SDS spores [3]; drench 25 ppm, Inoc Rate 25, IC 1.6) was 2.3. The “Root Rot Average” value (SDS spores [3]; drench 25 ppm, Inoc Rate 25, IC 3.9) was 4.1, the “Root Vigor Average” value (SDS spores [3]; seed treatment 1 μg/seed, Inoc Rate 8, IC 2.3) was 1.9 and the “Root Rot Average” value (SDS spores [3]; seed treatment 1 μg/seed, Inoc Rate 8, IC 2.9) was 2.9. For the same compound, the “Root Vigor Average” value (SDS spores [3]; seed treatment 1 μg/seed, Inoc Rate 25, IC 1.6) was 2.1, the “Root Rot Average” value (SDS spores [3]; seed treatment 1 μg/seed, Inoc Rate 25, IC 3.9) was 4.1 and the “Root Vigor Average” value (SDS spores [3]; seed treatment 5 μg/seed, Inoc Rate 8, IC 2.3) was 1.4. The “Root Rot Average” value (SDS spores [3]; seed treatment 5 μg/seed, Inoc Rate 8, IC 2.9) was 2.4, the “Root Vigor Average” value (SDS spores [3]; seed treatment 5 μg/seed, Inoc Rate 25, IC 1.6) was 2.6 and the “Root Rot Average” value (SDS spores [3]; seed treatment 5 μg/seed, Inoc Rate 25, IC 3.9) was 4.1. For the same compound, the “Root Vigor Average” value (SDS spores [3]; seed treatment 10 μg/seed, Inoc Rate 8, IC 2.3) was 2.2, the “Root Rot Average” value (SDS spores [3]; seed treatment 10 μg/seed, Inoc Rate 8, IC 2.9) was 2.4 and the “Root Vigor Average” value (SDS spores [3]; seed treatment 10 μg/seed, Inoc Rate 25, IC 1.6) was 1.9. For the same compound, the “Root Rot Average” value (SDS spores [3]; seed treatment 10 μg/seed, Inoc Rate 25, IC 3.9) was 4.1, the “Root Vigor Average” value (SDS spores [3]; seed treatment 25 μg/seed, Inoc Rate 8, IC 2.3) was 1.8 and the “Root Rot Average” value (SDS spores [3]; seed treatment 25 μg/seed, Inoc Rate 8, IC 2.9) was 2.3. For the same compound, the “Root Vigor Average” value (SDS spores [3]; seed treatment 25 μg/seed, Inoc Rate 25, IC 1.6) was 2.2, the “Root Rot Average” value (SDS spores [3]; seed treatment 25 μg/seed, Inoc Rate 25, IC 3.9) was 3.6 and the “Root Vigor Average” value (SDS spores [3]; seed treatment 50 μg/seed, Inoc Rate 8, IC 2.3) was 1.9. For the same compound, the “Root Rot Average” value (SDS spores [3]; seed treatment 50 μg/seed, Inoc Rate 8, IC 2.9) was 2.8, the “Root Vigor Average” value (SDS spores [3]; seed treatment 50 μg/seed, Inoc Rate 25, IC 1.6) was 2.1 and the “Root Rot Average” value (SDS spores [3]; seed treatment 50 μg/seed, Inoc Rate 25, IC 3.9) was 3.8. The “root rot ratings vs infested control (IC) plants” value (SDS spores [4]; drench 10 ppm) was “significantly lower”, the “root vigor ratings vs infested control (IC) plants” value (SDS spores [4]; drench 10 ppm) was “higher” and the “root rot ratings vs infested control (IC) plants” value (SDS spores [4]; drench 25 ppm) was “significantly lower”. For the same compound, the “root vigor ratings vs infested control (IC) plants” value (SDS spores [4]; drench 25 ppm) was “higher”, the “root rot ratings vs infested control (IC) plants” value (SDS spores [4]; drench 50 ppm) was “significantly lower” and the “root vigor ratings vs infested control (IC) plants” value (SDS spores [4]; drench 50 ppm) was “higher”.
